According to paper PMC11352273, “The Proapoptotic Action of Pyrrolidinedione–Thiazolidinone Hybrids towards Human Breast Carcinoma Cells Does Not Depend on Their Genotype” (Cancers, 2024):
Where two headings read alike, the source gives them in different places.

Tests used:
MCF-7 cells [1] = assay: MTT assay; assay type: cell-based; conditions: Homo sapiens, read-out: IC50, µM (M ± SD)
Experimental: (§1) The MCF-7 and MDA-MB-231 cells were cultured in the DMEM medium containing 10% of the FBS, HCC1954, T-47D, and 4T1 cells in the RPMI-1640 medium with the addition of 10% of the FBS, and MCF-10A cells in MEGM Mammary Epithelial Cell Growth Medium BulletKit supplemented with penicillin/streptomycin cocktail and 5% of horse serum. The cells were cultured in a […] atmosphere at 5% CO2 and 37 °C. After trypsinization, cells were counted using a Scepter 3.0 handheld automated cell counter (Millipore, Burlington, MA, USA).
(§2) The MTT test was used to assess the metabolic activity of cells treated with the investigated substances following the Sigma-Aldrich manufacturer’s instructions. Briefly, compounds were added in 100 µL of the cultural medium, and cells were incubated for the next 24 and 48 h. Doxorubicin was used as a reference drug. The DMSO was added to dissolve the crystals of formazan. We used the ThermoScientific Evolution 201 UV–VIS spectrophotometer (ThermoFisher Scientific, Waltham, MA, USA) to measure the absorbance of formazan at 570 nm. The initial value of the relative number of cells in control (under 0.1% of the DMSO) was accepted as 100%. We used GraphPad Prism Version 9 to calculate the half-maximal inhibition concentration (IC50) of the studied compounds (the concentration of the drug that reduced cell viability by 50%).

HCC1954 cells [2] = assay: MTT assay; assay type: cell-based; conditions: Homo sapiens, read-out: IC50, µM (M ± SD)
Experimental: as §1, §2

T-47D cells = assay: MTT assay; assay type: cell-based; conditions: Homo sapiens, T47D, read-out: IC50, µM (M ± SD)
Experimental: as §1, §2

MDA-MB-231 cells [3] = assay: MTT assay; assay type: cell-based; conditions: Homo sapiens, read-out: IC50, µM (M ± SD)
Experimental: as §1, §2

BECN1 in MCF-7 cells = assay: qPCR gene expression; assay type: cell-based, human; conditions: MCF-7, 24 h, 1 µM
Experimental: (§3) Total RNA was isolated using the RNeasy Mini Kit (Qiagen, Venlo, The Netherlands) according to the manufacturer’s protocol and quantified on a NanoDrop spectrophotometer (NanoDrop™ One/OneC, ThermoFisher, Waltham, MA, USA). Next, 1 μg of RNA from every sample was reverse transcribed using a High-Capacity cDNA Reverse Transcription Kit (ThermoFisher, Waltham, MA, USA) according to the standard manufacturer’s instructions. The expression of genes, namely MAP1LC3b (Bio-Rad, Hercules, CA, USA) and BECN1 (Bio-Rad, Hercules, CA, USA), was evaluated using SsoAdvanced Universal SYBR Green Supermix (Bio-Rad, Hercules, CA, USA) on the StepOne Plus system (ThermoFisher, Waltham, MA, USA). StepOne Software v2.3 (Thermo Fisher Scientific, Waltham, MA, USA) was used for results calculations. The results were normalized to GAPDH (Bio-Rad, Hercules, CA, USA) and untreated cells (control). Data were presented as a relative expression using the 2^−ΔΔCt method.

MAP1LC3B in MCF-7 cells = assay: qPCR gene expression; assay type: cell-based, human; conditions: MCF-7, 24 h, 1 µM
Experimental: as §3

[4] = system: MMP-2 in MDA-MB-231 cells; assay: MMP-2 ELISA in culture supernatants; assay type: cell-based, human; conditions: MDA-MB-231, 24 h, 2 μM; control 1055.21 pg/mL
Experimental: (§4) In order to determine the Beclin-1 concentration in the cell lysates, the SimpleStep ELISA (Abcam, Cambridge, UK) Kit was used. MMP-2, MMP-9, and ICAM-1 concentrations were measured in culture supernatants using high-sensitivity human SimpleStep ELISA kits (Abcam, Cambridge, UK) according to the manufacturer’s protocols. The LC3B ELISA kit (BT LAB, Shanghai, China) was used to check the protein concentration in cell lysates from analyzed breast cancer cells. The procedure for preparing the samples was shown previously.

MMP-2 in MCF-7 cells = assay: MMP-2 ELISA in culture supernatants; assay type: cell-based, human; conditions: MCF-7, 24 h, control 610.57 pg/mL
Experimental: as §4

MCF-7 cells [5] = assay: [3H]-thymidine incorporation assay; assay type: cell-based; conditions: Homo sapiens, MCF7; MCF-7, 24 h; read-out: IC50 (M ± SD) in [3H]-thymidine assay (DNA synthesis)
Experimental: (§5) Following a 24 h cell treatment, the incorporation of [^3H]-thymidine into the DNA of the breast tumor and normal cells was used to measure the antiproliferative activity of Les-6287. The MCF-7, MDA-MB-231, HCC1954, and MCF-10A cells were seeded into six-well plates (density 3 × 10^5 cells/well) and cultured for 24 h. Then, they were incubated under the same conditions for the next 24 h with a growth medium containing the tested compounds and reference drug (doxorubicin) at different concentrations (1, 2.5, 5, 10, 50 µM). After 24 h, the medium was changed to a fresh one without FBS. A total of 0.5 µCi of tritium-labeled thymidine (specific activity: 7 Ci/mmol) was added to cells for 4 h. The cells were washed with 1 mL of 0.05 M Tris-HCl buffer pH 7.4 containing 0.11 M NaCl and 1 mL of 5% trichloroacetic acid (TCA). Each well was filled with 1 mL of a 0.1 M NaOH solution containing 1% SDS to complete cell lysis. After 5 min, the acquired cell lysates were put into scintillation vials and pre-filled with two milliliters of scintillation liquid. The Scintillation Counter 1900 TR, TRI-CARB (Packard, Perkin Elmer, Inc., San Jose, CA, USA) was used to record the results. The effect of compounds on DNA synthesis was expressed as % of the control (non-treated cells).

HCC1954 cells [6] = assay: [3H]-thymidine incorporation assay; assay type: cell-based; conditions: Homo sapiens; HCC1954, 24 h; read-out: IC50 (M ± SD) in [3H]-thymidine assay (DNA synthesis)
Experimental: as §5

MDA-MB-231 cells [7] = assay: [3H]-thymidine incorporation assay; assay type: cell-based; conditions: Homo sapiens; MDA-MB-231, 24 h; read-out: IC50 (M ± SD) in [3H]-thymidine assay (DNA synthesis)
Experimental: as §5

MCF-10A cells = assay: [3H]-thymidine incorporation assay; assay type: cell-based; conditions: Homo sapiens, 24 h, read-out: IC50 (M ± SD) in [3H]-thymidine assay (DNA synthesis)
Experimental: as §5

[8] = system: caspase 9 in MDA-MB-231 cells; assay: Caspase-9 activity, FAM-FLICA flow cytometry; assay type: cell-based, human; conditions: MDA-MB-231, 24 h
Experimental: The assay was performed following the manufacturer’s instructions and the previously described methodology [25]. […] The cells were gathered, rinsed twice with chilled PBS, and reconstituted in an Apoptosis Wash Buffer. Then, 10 µL of freshly diluted FLICA solution was added to 290 µL of cell suspension and incubated for an hour at 37 °C. Following two rounds of washing with 2 mL of Apoptosis Wash Buffer, the cells were centrifuged, resuspended in 300 µL of the buffer, and then analyzed [25].

IC50 (MCF-7 cells [1]; MCF7, MCF-7, 24 h)	IC50 (MCF-7 cells [1]; MCF7, MCF-7, 48 h)	IC50 (HCC1954 cells [2]; HCC1954, 24 h)	IC50 (HCC1954 cells [2]; HCC1954, 48 h)	IC50 (T-47D cells; 24 h)	IC50 (T-47D cells; 48 h)	IC50 (MDA-MB-231 cells [3]; MDA-MB-231, 24 h)	IC50 (MDA-MB-231 cells [3]; MDA-MB-231, 48 h)	IC50 (MCF-7 cells [5])	IC50 (HCC1954 cells [6])	IC50 (MDA-MB-231 cells [7])	Structure (SMILES)	BECN1 gene expression compared to control cells (BECN1 in MCF-7 cells)	MAP1LC3B gene expression compared to control cells (MAP1LC3B in MCF-7 cells)	concentration of MMP-2 [4]	concentration of MMP-2 (MMP-2 in MCF-7 cells; 2 μM)	IC50 (MCF-10A cells)	concentration of MMP-2 (MMP-2 in MCF-7 cells; compound concentration not stated (most significant decrease))	cells with active caspase 9 ([8]; 1 µM)	cells with active caspase 9 ([8]; 1.5 µM)
3.47 ± 0.49 µM	0.18 ± 0.07 µM	1.9 ± 0.11 µM	1.15 ± 0.16 µM	3.66 ± 0.33 µM	2.31 ± 0.24 µM	6.18 ± 0.08 µM	1.09 ± 0.09 µM	660 ± 130 nM	1070 ± 40 nM	630 ± 110 nM	COc1cccc2c1C(=O)c1c(O)c3c(c(O)c1C2=O)C[C@@](O)(C(=O)CO)C[C@@H]3O[C@H]1C[C@H](N)[C@H](O)[C@H](C)O1 [Dox, doxorubicin, reference compound]	significantly increased	significantly increased	470.57 pg/mL	425.40 pg/mL	3190 ± 430 nM	–	–	–
2.34 ± 0.16 µM	1.43 ± 0.18 µM	2.52 ± 0.65 µM	2.25 ± 0.64 µM	3.11 ± 0.19 µM	1.74 ± 0.25 µM	3.86 ± 0.24 µM	1.37 ± 0.15 µM	2370 ± 20 nM	3670 ± 90 nM	2320 ± 40 nM	O=C1CC(N2C(=O)C(=CC(Cl)=Cc3ccc([N+](=O)[O-])cc3)SC2=S)C(=O)N1c1ccc(O)cc1 (stereo not shown) [Les-6287, 1-(4-hydroxyphenyl)-3-[5-[2-chloro-3-(4-nitrophenyl)prop-2-enylidene]-4-oxo-2-thioxothiazolidine-3-yl]pyrrolidine-2,5-dione]	did not affect	did not affect	711.74 pg/mL	–	43500 ± 1160 nM	395.91 pg/mL	15.30 ± 0.80%	21.88 ± 2.00%
